Laboratory results taken from patent publication US8546603B2, “Substituted cyclopentanes having prostaglandin activity” (Allergan, Inc., priority 2007, dated 2013).
Where two headings read alike, the source gives them in different places.

Assays:
EP3 = target: T1, EP3 (Homo sapiens, UniProt P43115); assay: EP3 functional assay; type: cell-based
T1 sequence (P43115 1-390): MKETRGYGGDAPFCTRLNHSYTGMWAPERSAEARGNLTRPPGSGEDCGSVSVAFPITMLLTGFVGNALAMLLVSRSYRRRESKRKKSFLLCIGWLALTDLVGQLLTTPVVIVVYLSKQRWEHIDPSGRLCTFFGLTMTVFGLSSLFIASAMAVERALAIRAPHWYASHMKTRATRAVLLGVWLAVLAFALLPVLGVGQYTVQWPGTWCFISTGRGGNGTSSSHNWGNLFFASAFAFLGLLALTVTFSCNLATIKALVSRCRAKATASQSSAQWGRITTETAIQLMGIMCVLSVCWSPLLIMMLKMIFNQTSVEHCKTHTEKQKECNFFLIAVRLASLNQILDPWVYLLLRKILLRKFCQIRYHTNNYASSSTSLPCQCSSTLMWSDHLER
Excerpt: (§1) U.S. patent application Ser. No. 11/553,143, filed on Oct. 26, 2006, incorporated by reference herein, describes the methods used to obtain the in vitro data in Table 1 below.

EP4 [1] = target: T2, EP4 (Homo sapiens, UniProt P35408); assay: EP4 Ca2+ signal assay; type: cell-based; conditions: for EP4 Ca2+ signal % PGE2: relative to PGE2
Excerpt: as §1

EP4 [2] = target: T2, EP4; assay: EP4 binding assay
Excerpt: as §1

EP1 = target: T3, EP1 (Homo sapiens, UniProt P34995); assay: EP1 functional assay; type: cell-based
T3 sequence (P34995 1-402): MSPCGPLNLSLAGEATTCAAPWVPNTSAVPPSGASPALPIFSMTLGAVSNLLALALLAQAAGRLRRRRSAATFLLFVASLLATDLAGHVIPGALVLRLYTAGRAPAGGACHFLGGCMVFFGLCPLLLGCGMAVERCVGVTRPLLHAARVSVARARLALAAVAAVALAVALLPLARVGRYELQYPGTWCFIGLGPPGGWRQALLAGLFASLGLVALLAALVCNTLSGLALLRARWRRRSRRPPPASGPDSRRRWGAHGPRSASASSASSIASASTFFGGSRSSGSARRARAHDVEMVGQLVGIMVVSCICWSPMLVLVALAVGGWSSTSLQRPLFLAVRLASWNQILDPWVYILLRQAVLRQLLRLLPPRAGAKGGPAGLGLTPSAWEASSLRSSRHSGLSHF
Excerpt: as §1

EP2 [3] = target: T4, EP2 (Homo sapiens, UniProt P43116); assay: EP2 Ca2+ signal assay; type: cell-based; conditions: for EP2 Ca2+ signal % PGE2: relative to PGE2
Excerpt: as §1

EP2 [4] = target: T4, EP2; assay: EP2 cAMP assay; type: cell-based
Excerpt: as §1

TP = target: T5, TP (Homo sapiens, UniProt P21731); assay: TP functional assay; type: cell-based
T5 sequence (P21731 1-343): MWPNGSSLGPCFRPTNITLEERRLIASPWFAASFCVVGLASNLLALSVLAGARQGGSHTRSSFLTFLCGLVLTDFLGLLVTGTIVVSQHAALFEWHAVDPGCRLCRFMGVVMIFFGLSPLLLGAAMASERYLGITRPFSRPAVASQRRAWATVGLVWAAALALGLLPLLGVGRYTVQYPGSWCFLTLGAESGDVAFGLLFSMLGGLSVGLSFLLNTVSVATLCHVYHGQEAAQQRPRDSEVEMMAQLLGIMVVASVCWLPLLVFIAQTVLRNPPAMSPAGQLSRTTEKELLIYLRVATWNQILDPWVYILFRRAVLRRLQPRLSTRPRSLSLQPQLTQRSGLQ
Excerpt: as §1

EP2 [5] = target: T4, EP2; assay: EP2 binding assay
Excerpt: as §1

T2 sequence (P35408 whole entry): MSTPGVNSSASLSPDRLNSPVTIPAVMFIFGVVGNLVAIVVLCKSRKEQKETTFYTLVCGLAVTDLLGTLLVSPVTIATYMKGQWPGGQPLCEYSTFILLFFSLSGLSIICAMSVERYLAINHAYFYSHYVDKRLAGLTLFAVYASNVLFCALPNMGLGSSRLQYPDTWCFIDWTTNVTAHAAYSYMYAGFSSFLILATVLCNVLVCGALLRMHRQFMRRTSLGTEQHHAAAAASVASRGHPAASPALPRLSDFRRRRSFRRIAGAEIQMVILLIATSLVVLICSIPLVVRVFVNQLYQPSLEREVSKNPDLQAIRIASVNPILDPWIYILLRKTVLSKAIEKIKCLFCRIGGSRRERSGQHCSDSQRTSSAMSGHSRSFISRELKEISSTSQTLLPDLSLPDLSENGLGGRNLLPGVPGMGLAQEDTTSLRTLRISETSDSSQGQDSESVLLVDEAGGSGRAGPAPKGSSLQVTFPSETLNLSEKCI
T4 sequence (P43116 whole entry): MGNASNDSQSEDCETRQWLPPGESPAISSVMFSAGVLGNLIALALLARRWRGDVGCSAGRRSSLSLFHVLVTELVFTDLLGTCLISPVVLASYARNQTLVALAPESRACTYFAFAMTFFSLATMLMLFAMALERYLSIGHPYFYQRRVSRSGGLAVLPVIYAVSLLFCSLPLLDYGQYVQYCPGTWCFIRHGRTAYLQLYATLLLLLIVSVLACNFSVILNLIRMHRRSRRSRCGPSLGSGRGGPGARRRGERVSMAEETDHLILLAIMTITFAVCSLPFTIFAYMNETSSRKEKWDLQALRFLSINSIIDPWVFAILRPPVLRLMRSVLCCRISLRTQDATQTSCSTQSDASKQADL

SMILES	EC50 (EP3)	EC50 (EP4 [1])	EP4 Ca2+ signal % PGE2 (EP4 [1])	EC50 (EP4 [2])	EP4 Binding % Inh (EP4 [2])	EC50 (EP1)	EC50 (EP2 [3])	EP2 Ca2+ signal % PGE2 (EP2 [3])	EC50 (EP2 [4])	EC50 (TP)	EC50 (EP2 [5])	EP2 Binding % Inh (EP2 [5])	EP4 Binding % Inh (EP4 [2]; listed as 219309)	EP2 Ca2+ signal % PGE2 (EP2 [3]; listed as 219309)	EP2 Binding % Inh (EP2 [5]; listed as 219309)	EP4 Binding % Inh (EP4 [2]; listed as 219310)	EP2 Ca2+ signal % PGE2 (EP2 [3]; listed as 219310)	EP2 Binding % Inh (EP2 [5]; listed as 219310)
C[C@@H](O)CCC[C@H](O)/C=C/[C@H]1[C@H](O)CC(=O)[C@@H]1C/C=C\CCCC(=O)O [AGN-191286]	11 nM	192 nM	100%	1510 nM	75%	308 nM	28 nM	100%	0.7 nM	3010 nM	530 nM	92%						
C[C@@H](O)CCC[C@H](O)/C=C/[C@H]1[C@H](O)CC(=O)[C@@H]1CCCCCCC(=O)O [AGN-191287]	21 nM	193 nM	102%	1670 nM	75%	2760 nM	34 nM	100%	0.9 nM	5270 nM	487 nM	87%						
C[C@@H](O)CCC[C@H](O)/C=C/[C@@H]1[C@@H](CCCc2ccc(C(=O)O)s2)[C@H](Cl)C[C@H]1O [AGN-217510]	499 nM	145 nM	121%	2350 nM	64%	724 nM	7.4 nM	106%	0.06 nM		66 nM	99%						
COC(/C=C/[C@@H]1[C@@H](CCCc2ccc(C(=O)O)s2)[C@H](Cl)C[C@H]1O)CCC[C@@H](C)O (stereo partly shown) [AGN-219309]				> 10000 nM			4020 nM		25 nM		3310 nM		9%	63%	68%			
COC(/C=C/[C@@H]1[C@@H](CCCc2ccc(C(=O)O)s2)[C@H](Cl)C[C@H]1O)CCC[C@@H](C)O (stereo partly shown) [AGN-219310]				> 10000 nM			281 nM		3 nM		171 nM					6%	77%	90%
C[C@H](O)CCC[C@H](O)/C=C/[C@@H]1[C@@H](CCCc2ccc(C(=O)O)s2)[C@H](Cl)C[C@H]1O [AGN-221568]		35 nM	120%	1280 nM	98%		20 nM	91%	1.4 nM		381 nM	91%						
